Source: patent publication US4663321A, “Triazolobenzodiazepines and pharmaceutical use” (Merck & Co., Inc., priority 1985, dated 1987)
Read-outs that look alike come from different tables or passages of the source. Square brackets hold non-standard residues; d marks the D form. Peptide text beside a SMILES is read from it. * marks the point of attachment. sY = N[C@@H](Cc1ccc(OS(=O)(=O)O)cc1)C(=O)O; Cbz = O=C(OCc1ccccc1)*; Boc = CC(C)(C)OC(=O)*

What was measured:
CCK receptor [1] = conditions: prior art CCK antagonists; cited from earlier work
CCK receptor [2] = molecular target: T1, CCK receptor (Rattus norvegicus, UniProt P30551); test: CCK receptor binding (pancreas), inhibition of 125I-CCK-33 binding; set-up: species or system rat (Male Sprague-Dawley); conditions: for effect on the 125I-CCK receptor binding assay: protease inhibitor additives of the assay buffer
T1 construct: The whole pancreas was dissected free of fat tissue and was homogenized; from tissue; host or cells: rat (Sprague-Dawley) whole pancreas membranes
T1 sequence (P30551 1-444): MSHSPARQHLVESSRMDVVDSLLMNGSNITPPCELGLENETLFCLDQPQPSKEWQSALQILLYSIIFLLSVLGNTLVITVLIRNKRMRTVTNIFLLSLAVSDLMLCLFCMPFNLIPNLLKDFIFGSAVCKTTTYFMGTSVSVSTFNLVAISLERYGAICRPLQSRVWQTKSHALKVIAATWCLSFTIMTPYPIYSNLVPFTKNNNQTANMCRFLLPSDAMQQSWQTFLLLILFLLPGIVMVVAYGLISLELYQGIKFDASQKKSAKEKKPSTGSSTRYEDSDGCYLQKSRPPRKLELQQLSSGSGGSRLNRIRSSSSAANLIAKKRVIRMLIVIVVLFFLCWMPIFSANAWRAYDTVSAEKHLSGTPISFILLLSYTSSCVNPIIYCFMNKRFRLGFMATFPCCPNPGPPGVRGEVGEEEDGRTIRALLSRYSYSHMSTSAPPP
Protocol: 1. CCK receptor binding (pancreas)
CCK-33 was radiolabeled with ^125 I-Bolton Hunter reagent (2000 Ci/mmole) as described by Sankara et al. (J. Biol. Chem. 254: 9349-9351, 1979). Receptor binding was performed according to Innis and Snyder (Proc. Natl. Acad. Sci. 77: 6917-6921, 1980) with the minor modification of adding the additional protease inhibitors, phenylmethane sulfonyl fluoride and o-phenanthroline. The latter two compounds have no effect on the ^125 I-CCK receptor binding assay.
Male Sprague-Dawley rats (200-350 g) were sacrificed by decapitation. The whole pancreas was dissected free of fat tissue and was homogenized in 20 volumes of ice-cold 50 mM. Tris HCl (pH 7.7 at 25° C.) with a Brinkmann Polytron PT 10. The homogenates were centrifuged at 48,000 g for 10 min. Pellets were resuspended in Tris Buffer, centrifuged as above and resuspended in 200 volumes of binding assay buffer (50 mM Tris HCl, pH 7.7 at 25° C., 5 mM dithiothrietol, 0.1 mM bacitracin, 1.2 mM phenylmethane sulfonyl fluoride and 0.5 mM o-phenanthroline). […] All assays were run in duplicate or triplicate. The reaction mixtures were incubated at 37° C. for 30 minutes and centrifuged in a Beckman Microfuge (4 minutes) immediately after adding 1 ml of ice-cold incubation buffer. The supernatant was aspirated and discarded, pellets were counted with a Beckman gamma 5000. For Scatchard analysis (Ann. N.Y. Acad. Sci. 51: 660, 1949), ^125 I-CCK-33 was progressively diluted with increasing concentrations of CCK-33.

CCK receptor [3] = molecular target: T2, CCK receptor (Cavia porcellus, UniProt H0VZC5); test: CCK receptor binding (brain), inhibition of 125I-CCK-33 binding; set-up: species or system guinea pig (Male Hartley); conditions: 125I-CCK-33, guinea pig cerebral cortex, 25° C., 2 hours
T2 construct: Cerebral cortex was dissected and used as a receptor source; from tissue; host or cells: guinea pig (Hartley) cerebral cortex membranes
T2 sequence (H0VZC5 entry or part of it): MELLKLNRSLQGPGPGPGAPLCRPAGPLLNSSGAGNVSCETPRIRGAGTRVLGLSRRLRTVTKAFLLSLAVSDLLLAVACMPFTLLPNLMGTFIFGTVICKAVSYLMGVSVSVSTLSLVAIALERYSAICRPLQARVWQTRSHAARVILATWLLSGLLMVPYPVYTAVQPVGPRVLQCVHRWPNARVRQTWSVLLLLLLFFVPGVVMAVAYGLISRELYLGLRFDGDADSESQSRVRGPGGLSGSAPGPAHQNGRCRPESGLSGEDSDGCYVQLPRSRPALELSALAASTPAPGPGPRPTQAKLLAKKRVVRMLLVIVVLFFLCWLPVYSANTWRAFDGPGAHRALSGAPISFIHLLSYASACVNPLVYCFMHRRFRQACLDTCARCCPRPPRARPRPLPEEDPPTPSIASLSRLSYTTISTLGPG
Protocol: 2. CCK Receptor Binding (Brain)
CCK-33 was radiolabeled and the binding was performed according to the description for the pancreas method with modification according to Saito et al. (J. Neurochem. 37, 483-490, 1981).
Male Hartley guinea pigs (300-500 g) were sacrificed by decapitation and the brains were removed and placed in ice-cold 50 mM. Tris HCl plus 7.58 g/l Trizma-7.4 (pH 7.4 at 25° C.). Cerebral cortex was dissected and used as a receptor source. Each gram of fresh guinea pig brain tissue was homogenized in 10 ml of Tris Trizma buffer with a Brinkman polytron PT-10. The homogenates were centrifuged at 42,000 g for 15 min. […] All assays were run in duplicate or triplicate. The reaction mixtures were incubated at 25° C. for 2 hours and centrifuged in a Beckman Microfuge (4 minutes) immediately after adding 1 ml of ice-cold incubation buffer. The supernatant was aspirated and discarded, pellets were counted with a Beckman gamma 5000.

gastrin receptor = conditions: cited from earlier work
[4] = 125I-CCK-33, rat pancreas membranes, 37° C., 30 minutes, read-out: IC50 125I-CCK Pancreas
[5] = read-out: IC50 125I-CCK Pancreas

| SMILES | IC50 (CCK receptor [2]; [4]) [µM] | IC50 (CCK receptor [3]) [µM] | further results |
| --- | --- | --- | --- |
| CSCC[C@H](NC(=O)OC(C)(C)C)C(=O)N[C@@H](CC(=O)O)C(=O)N[C@@H](Cc1ccccc1)C(N)=O [Boc-Met-Asp-Phe-NH2] (Boc-Met-Asp-Phe-NH2) | – | – | CCK antagonist activity (CCK receptor [1]): can function as CCK antagonists |
| CSCC[C@H](NC(=O)[C@H](Cc1ccc(OS(=O)(=O)O)cc1)NC(=O)OCc1ccccc1)C(=O)NCC(=O)N[C@@H](Cc1c[nH]c2ccccc12)C(=O)N[C@@H](CCSC)C(=O)N[C@@H](CC(=O)O)C(N)=O [Cbz-Tyr(SO3 H)-Met-Gly-Trp-Met-Asp-NH2] (Cbz-[sY]MGWMD-NH2) | – | – | CCK antagonist activity (CCK receptor [1]): can function as CCK antagonists |
| Fc1ccccc1C1=N[C@H](Cc2c[nH]c3ccccc23)c2nncn2-c2ccccc21 [Compound 1, 6-(2-Fluorophenyl)-4(R)-4-(3'-indolyl)methyl-4H-s-triazolo[4,3-a]-1,4-benzodiazepine] | 0.2 | – | – |
| Cc1nnc2n1-c1ccccc1C(c1ccccc1F)=N[C@@H]2Cc1c[nH]c2ccccc12 [Compound 2, 6-(2-Fluorophenyl)-4-(R)-4-(3'-indolyl)methyl-1-methyl-4H-s-triazolo[4,3-a]-1,4-benzodiazepine] | 0.3 | 38.6 | – |
| Fc1ccccc1C1=N[C@H](Cc2c[nH]c3ccccc23)c2nnc(-c3ccccc3)n2-c2ccccc21 [Compound 3, 6-(2-Fluorophenyl)-4(R)-4-(3'-indolyl)methyl-1-phenyl-4H-s-triazolo[4,3-a]-1,4-benzodiazepine] | – | – | IC50 (CCK receptor [2]; [5]): 22 µM |
| CN(C)Cc1nnc2n1-c1ccccc1C(c1ccccc1F)=N[C@@H]2Cc1c[nH]c2ccccc12 [Compound 4, 6-(2-Fluorophenyl)-4(R)-4-(3'-indolyl)methyl-1-dimethylaminomethyl-4H-s-triazolo[4,3-a]-1,4-benzodiazapine] | – | – | IC50 (CCK receptor [2]; [5]): 14 µM |
| O=c1[nH]nc2n1-c1ccccc1C(c1ccccc1F)=N[C@@H]2Cc1c[nH]c2ccccc12 [Compound 5, 2,4-Dihydro-3(R)-(3'-indolyl)methyl-6-(2-fluorophenyl)-1H-S-triazolo-[4,3-a]-1,4-benzodiazepin-1-one solvate] | – | 63 | IC50 (CCK receptor [2]): 3.1 µM |
| Fc1ccccc1C1=N[C@H](Cc2c[nH]c3ccccc23)c2nnc(C(Cl)(Cl)Cl)n2-c2ccccc21 [Compound 6, 1-Trichloromethyl-4(R)-(3'-indolyl)methyl-6-(2-fluorophenyl)-4H-S-triazolo[4,3-a]-1,4-benzodiazepine solvate] | 25 | > 100 | – |
| O=C(NC1N=C(c2ccccc2F)c2ccccc2-n2cnnc21)OCc1ccccc1 (stereo not drawn) [Compound 7, 6-(2-Fluorophenyl)-4-benzyloxycarbonylamino-4H-s-triazolo[4,3-a]-1,4-benzodiazepine] | – | 8 | IC50 (CCK receptor [2]; [5]): 0.22 µM |
| O=C(NC1N=C(c2ccccc2F)c2ccccc2-n2cnnc21)c1ccc(Cl)cc1 (stereo not drawn) [Compound 8, 6-(2-Fluorophenyl)-4-(4-chlorophenyl)carbonylamino-4H-s-triazolo[4,3-a]-1,4-benzodiazepine] | 0.0044 | 9.3 | – |
| O=C(NC1N=C(c2ccccc2F)c2ccccc2-n2cnnc21)c1cc2ccccc2[nH]1 (stereo not drawn) [Compound 9, 6-(2-Fluorophenyl)-4-(indol-2-yl)carbonylamino-4H-s-triazolo[4,3-a]-1,4-benzodiazepine] | 0.0009 | 0.053 | – |
| Cc1nnc2n1-c1ccccc1C(c1ccccc1F)=NC2NC(=O)c1cc2ccccc2[nH]1 (stereo not drawn) [Compound 10, 6-(2-Fluorophenyl)-4-(indol-2-yl)carbonylamino-1-methyl-4H-s-triazolo[4,3-a]-1,4-benzodiazepine] | 0.0004 | 0.066 | – |
| CSCC[C@H](N)C(=O)N[C@@H](CC(=O)O)C(=O)N[C@@H](Cc1ccccc1)C(N)=O [Met-Asp-Phe-NH2] (H-Met-Asp-Phe-NH2) | – | – | CCK antagonist activity (CCK receptor [1]): can function as CCK antagonists |
| CCCC(=O)Nc1nc2c(ncn2[C@@H]2O[C@@H]3COP(=O)(O)O[C@H]3[C@H]2OC(=O)CCC)c(=O)[nH]1 [dibutyryl cyclic GMP] | – | – | CCK antagonist activity (CCK receptor [1]): most potent |
| c1cnc2c(c1)ccc1cccnc12 [o-phenanthroline, reference compound] | – | – | effect on the 125I-CCK receptor binding assay (CCK receptor [2]): no effect |
| O=S(=O)(F)Cc1ccccc1 [phenylmethane sulfonyl fluoride, reference compound] | – | – | effect on the 125I-CCK receptor binding assay (CCK receptor [2]): no effect |
| CCCN(CCC)C(=O)C(CCC(=O)O)NC(=O)c1ccccc1 (stereo not drawn) [proglumide] | – | – | in vitro gastrin antagonism (gastrin receptor): Very weak in vitro antagonists |
